From patent EP0427747B1, “SUBSTITUTED PHENYLACETONITRILES USED TO OVERCOME RESISTANCE TO DRUGS IN ANTI-MALARIAL THERAPY” (priority 1988, dated 1990)
Counter-ions that a name gives are not always drawn.

Assays:
[1] = tested on: humanen Erythrocyten, die mit resistenten Plasmodien (Pl. falciparum) infiziert waren; experiment: Test model I: radiolabelled hypoxanthine incorporation (microdilution technique), alone and in combination with the antimalarial; type: cell-based; details: combination with Chloroquine; 1,0 = additivity, <0,5 = synergism
Excerpt: Alle Substanzen wurden zunächst alleine und dann in Kombination mit dem Antimalaria-Mittel an humanen Erythrocyten, die mit resistenten Plasmodien (Pl. falciparum) infiziert waren, getestet. Der Einbau von radioaktiv markiertem Hypoxanthin diente als Maß für das Wachstum der Parasiten. Nach der Microdilutions-Technik (Antimicrob. Agents Chemotherapy 16,710 (1979)), wurde dabei für die erfindungsgemäßen Substanzen allein keine oder nur eine geringe Hemmung des Hypoxanthin-Einbaus gefunden. In Kombination mit einem Malariamittel wurde dagegen eine deutlich synergistische Hemmung beobachtet. Die Auswertung erfolgte über den FIC-Index (eine mathematische Repräsentation eines Isobologramms). Der Wert 1,0 bedeutet Additivität der Wirkungen, ein Wert <0,5 Synergismus. Für R-Verapamil und Chloroquin erhält man den Wert 0,56. [formula] IC₅₀ = Konzentration der Prüfsubstanz, die eine 50 %ige Hemmung der Parasiten bewirkt. [A] = gemessene IC₅₀ der Substanzu A in Gegenwart einer definierten (z.B. 500 bis 125 000 ng/ml) Menge der Substanz B. [B] = gemessene IC₅₀ der Substanz B in Gegenwart einer definierten (z.B. 500 bis 125 000 ng/ml) Menge der Substanz A. IC50A = IC₅₀ der Substanz A alleine gegeben IC50B = IC₅₀ der Substanz B alleine gegeben.
Die folgenden Werte wurden in der Kombination mit Chloroquine bestimmt.

in vivo [2] = details: rat, iv
Excerpt: Das 3. Modell untersucht ebenfalls am Ganztier die Wirkung der Testsubstanz auf das Herz.
(§1) Angegeben ist jeweils, wieviel größer die Dosis der Testsubstanz sein darf als bei racemischem Verapamil, um den gleichen caridovasculären Effekt auszulösen.
(§2) Der Selektivitätsindex S der Tabelle ist das Produkt dieses Faktors mit dem AEI und beschreibt somit, um wieviel schwächer als beim racemischen Verapamil die cardiovasculären Effekte der Testsubstanz sind, wenn sie in der Resistenzbrechnung von Malariamitteln in equieffizienten Dosen eingesetzt werden.

P. yoelii NS = experiment: Test model II: blood schizontocidal action in infected mice, 4-day treatment; type: in vivo, Plasmodium yoelii ssp; details: for % Parasitämie: mice, daily dose 10,0 mg/kg test substance plus 0,3 mg/kg Chloroquin, s.c., 4 days, parasitaemia one day after treatment
Excerpt: Zur Bestätigung und weiteren Differenzierung der resistenzbrechenden Wirkung wurden Mäuse nach dem in Ann. Trop. Med. Parasit., 72, 23 (1978) beschriebenen Modell (vgl. auch Exp. Parasitol. 17, 89 (1965), Anm. Trop. Med. Parasit. 69, 155 (1975) mit parasitär befallenden Erythrocyten beimpft und 1 Tag nach der Injektion an vier aufeinanderfolgenden Tagen behandelt. Einen Tag nach der Behandlung wurde die Parasitämie bestimmt.
Eperythozoon-coccoides-freie, männliche, Schweizer Albino-Mäuse, Gewicht zwischen 18 und 20 g, werden für alle Prüfungen benutzt.
Sie werden in Räumen mit kontrollierter Temperatur (22° + 2°C) in Kunststoffkäfigen zu je 5 Mäusen pro Käfig gehalten.
P. yoelii NS, gewonnen aus P. yoelii N: mäßig resistent gegenüber Chloroquin. Erhaltung durch zyklische Passage durch Anopheles stephensi und unter medikamentöser Belastung in der Maus (60 mg/kg s.c. einmal während der Passage) (für nähere Erläuterung siehe Ann. Trop. Med. Parasit., 72, 23 (1978)).
Männliche Mäuse werden intravenös mit parasität befallenden Erythrozyten (10⁷) vom P. yoelli NS Stamm beimpft. Danach werden die Tiere an vier aufeinanderfolgenden Tagen beginnend am Tag der Infektion einmal täglich behandelt. Die Verbindungen werden mit ®Tween 80 in sterilem, destilliertem Wasser gelöst oder suspendiert und subkutan verabreicht. In Fällen, in denen sich die Zubereitung einer wäßrigen Lösung als äußerst schwierig erweist, wird die Prüfsubstanz zunächst in Dimethylsulfoxid gelöst. Danach werden wäßrige Verdünnungen zum Gebrauch hergestellt. Die Parasitämie wird am Tag nach der letzten Behandlung bestimmt. Die unterdrückung der Parasiten im Vergleich zur unbehandelten Kontrolle, wird mittels Probitanalyse der log-Dosis-Wirkungskurve berechnet.
Mäuse, die mit dem chloroquin-resistenten Plasmodium yoelii ssp infiziert waren, wurden mit Chloroquin über 4 Tage subkutan behandelt, wie unter II.2 beschrieben.
Einen Tag nach der Behandlung wurde die Parasitämie bestimmt und mit der Kontrolle verglichen.
Der AEI (Activity Enhancement Index) ist der Quotient aus der ED₉₀ für Chloroquin alleine und der ED₉₀ für Zusatz von 10 mg/kg Testsubstanz.

in vitro = details: rat, aortic strip
Excerpt: (§3) Weiter umfaßt die Tabelle drei praxisübliche Testmodelle auf cardiovasculäre Effekte. Am Gefäßstreifen der Ratte (rat aortic strip) (1. Modell) wird die Dosis bestimmt, die zu einer 50 %igen Relaxation führt, sie ist ein Maß für die gefäßerweiternde und damit blutdrucksenkende Wirkung einer Substanz. Das 2. Modell untersucht die blutdrucksenkende Wirkung am Ganztier (Ratte), bei intravenöser Gabe).
as §1, §2

in vivo [3] = details: rat, iv; remark: listed apart in the source
Excerpt: as §3, §1, §2

[4] = tested on: Gefäßstreifen der Ratte (rat aortic strip); experiment: in vitro
Excerpt: as §3, §1, §2

[5] = AEI relative to S,R-Verapamil = 1
[6] = Activity Enhancement Index: ED90 of Chloroquin alone divided by ED90 with addition of 10 mg/kg test substance

SMILES | FIC-Index [1] | EKG (AV-Block) Ratte i.v. ED (in vivo [2]) | AEI (10 mg/kg) (P. yoelii NS; [5]) | AEI (10 mg/kg) (P. yoelii NS; [6]) | % Parasitämie (P. yoelii NS) | selectivity ratio (in vitro) | Blutdrucksenkung ED₅₀ (in vivo [3]) | selectivity ratio (in vivo [3]) | selectivity ratio (in vivo [2]) | Ratten Aortenstreifen ED₅₀ [4]
COc1ccc(CCN(C)CCC[C@](C#N)(c2ccc(OC)c(OC)c2)C(C)C)cc1OC [R-Verapamil, reference compound] | 0,56 | 4,6 | 1,6x | 4,15 | 14,2% | 10.2 | – | – | – | –
COc1ccc(CCN(C)CCCC(C#N)(c2ccc(OC)c(OC)c2)C(C)C)cc1OC (racemic) [S,R-Verapamil, Verapamil, reference compound] | – | = 1 | = 1 x | 2,56 | – | – | – | – | – | –
CC(C)C(C#N)(CCCNCCc1ccccc1)c1ccccc1.Cl (stereo not shown) [Noremopamil, 1,7-Bis-(phenyl)-3-aza-7-cyano-8-methyl-nonan-hydrochlorid] | 0,19 | 4,6 | 1,60x | 4,1 | – | 4.6 | 4,3 | 6.9 | 6.9 | 2,9
CC(C)[C@@](C#N)(CCCN(C)CCc1ccccc1)c1ccccc1 [S-Emopamil, (-)-(S)-1,7-Bis-(phenyl)-3-methylaza-7-cyano-8-methyl-nonan-hydrochlorid] | 0,19 | 2,15 | 1,8x | 4,5 | 6,7% | 13.5 | 2,7 | – | – | 7,7
COc1ccc(CCN(C)CCCC(C#N)(c2cc(OC)c(OC)c(OC)c2)C(C)C)cc1OC (single isomer, unassigned; (+)) [(+)-Gallopamil, (+)-1-(3,4-Dimethoxyphenyl)-3-methylaza-7-cyan-7-(3,4,5-trimethoxyphenyl)-8-methylnonan-hydrochlorid] | 0,53 | 4,6 | 1,7x | 4,4 | 8,6% | 21.6 | 3,4 | – | – | 12,6
